Measured values published in the NIST ThermoML archive (doi:10.1021/je050389b).
Numbers after ± are expanded uncertainties.

Key:
[1] = Liquid
[2] = xn = mol fraction of the nth substance listed; conditions: Liquid, x2 = 0

CC(=O)OCCC(C)C [3-methylbutyl ethanoate]
[1], 100.5 kPa
Conditions	mass density [kg/m3]	viscosity [mPa·s]
288.15 K	877.72 ± 0.36	0.94 ± 0.016
298.15 K	867.91 ± 0.36	0.804 ± 0.015
308.15 K	858.07 ± 0.36	0.704 ± 0.015
318.15 K	848.17 ± 0.36	0.627 ± 0.014

CCO [ethanol] + CC(=O)OCCC(C)C
[2], 100.5 kPa
Conditions	mass density [kg/m3]	viscosity [mPa·s]
288.15 K	793.6 ± 0.23	1.337 ± 0.019
298.15 K	785 ± 0.24	1.105 ± 0.017
308.15 K	776.31 ± 0.24	0.921 ± 0.016
318.15 K	767.44 ± 0.25	0.771 ± 0.015

CCO [ethanol] + CCCCCC(=O)OCC
[2]
Conditions	mass density, 288.15 K [kg/m3]	mass density, 298.15 K [kg/m3]	mass density, 308.15 K [kg/m3]	mass density, 318.15 K [kg/m3]	viscosity, 288.15 K [mPa·s]	viscosity, 298.15 K [mPa·s]	viscosity, 308.15 K [mPa·s]	viscosity, 318.15 K [mPa·s]
100.5 kPa	–	–	–	–	1.337 ± 0.019	1.105 ± 0.017	0.921 ± 0.016	0.771 ± 0.015
101 kPa	793.6 ± 0.23	785 ± 0.24	776.31 ± 0.24	767.44 ± 0.25	–	–	–	–

CCCC(=O)OCCC(C)C [3-methylbutyl butanoate]
[1]
Conditions	mass density, 288.15 K [kg/m3]	mass density, 298.15 K [kg/m3]	mass density, 308.15 K [kg/m3]	mass density, 318.15 K [kg/m3]	viscosity, 288.15 K [mPa·s]	viscosity, 298.15 K [mPa·s]	viscosity, 308.15 K [mPa·s]	viscosity, 318.15 K [mPa·s]
100.5 kPa	–	–	–	–	1.317 ± 0.019	1.111 ± 0.018	0.952 ± 0.016	0.827 ± 0.016
101 kPa	867.72 ± 0.32	858.69 ± 0.32	849.62 ± 0.32	840.55 ± 0.32	–	–	–	–

CCCCCC(=O)OCC [ethyl hexanoate]
[1]
Conditions	mass density, 288.15 K [kg/m3]	mass density, 298.15 K [kg/m3]	mass density, 308.15 K [kg/m3]	mass density, 318.15 K [kg/m3]	viscosity, 288.15 K [mPa·s]	viscosity, 298.15 K [mPa·s]	viscosity, 308.15 K [mPa·s]	viscosity, 318.15 K [mPa·s]
100.5 kPa	–	–	–	–	1.102 ± 0.017	0.94 ± 0.016	0.814 ± 0.015	0.711 ± 0.015
101 kPa	875.64 ± 0.22	866.29 ± 0.22	856.91 ± 0.23	847.5 ± 0.23	–	–	–	–

CCO [ethanol] + CCOC(=O)c1ccccc1
[2]
Conditions	mass density, 288.15 K [kg/m3]	mass density, 298.15 K [kg/m3]	mass density, 308.15 K [kg/m3]	mass density, 318.15 K [kg/m3]	viscosity, 288.15 K [mPa·s]	viscosity, 298.15 K [mPa·s]	viscosity, 308.15 K [mPa·s]	viscosity, 318.15 K [mPa·s]
100.5 kPa	–	–	–	–	1.337 ± 0.019	1.105 ± 0.017	0.921 ± 0.016	0.771 ± 0.015
101 kPa	793.6 ± 0.23	785 ± 0.24	776.31 ± 0.24	767.44 ± 0.25	–	–	–	–

CCOC(=O)Cc1ccccc1 [ethyl phenylacetate]
[1]
Conditions	mass density, 288.15 K [kg/m3]	mass density, 298.15 K [kg/m3]	mass density, 308.15 K [kg/m3]	mass density, 318.15 K [kg/m3]	viscosity, 288.15 K [mPa·s]	viscosity, 298.15 K [mPa·s]	viscosity, 308.15 K [mPa·s]	viscosity, 318.15 K [mPa·s]
100.5 kPa	–	–	–	–	3.002 ± 0.035	2.384 ± 0.028	1.948 ± 0.024	1.624 ± 0.022
101 kPa	1036.35 ± 0.34	1026.96 ± 0.33	1017.6 ± 0.33	1008.26 ± 0.33	–	–	–	–

CCO [ethanol] + CCOC(=O)Cc1ccccc1
[2]
Conditions	mass density, 288.15 K [kg/m3]	mass density, 298.15 K [kg/m3]	mass density, 308.15 K [kg/m3]	mass density, 318.15 K [kg/m3]	viscosity, 288.15 K [mPa·s]	viscosity, 298.15 K [mPa·s]	viscosity, 308.15 K [mPa·s]	viscosity, 318.15 K [mPa·s]
100.5 kPa	–	–	–	–	1.337 ± 0.019	1.105 ± 0.017	0.921 ± 0.016	0.771 ± 0.015
101 kPa	793.6 ± 0.23	785 ± 0.24	776.31 ± 0.24	767.44 ± 0.25	–	–	–	–

CCO [ethanol] + CCCCCCCC(=O)OCC
[2]
Conditions	mass density, 288.15 K [kg/m3]	mass density, 298.15 K [kg/m3]	mass density, 308.15 K [kg/m3]	mass density, 318.15 K [kg/m3]	viscosity, 288.15 K [mPa·s]	viscosity, 298.15 K [mPa·s]	viscosity, 308.15 K [mPa·s]	viscosity, 318.15 K [mPa·s]
100.5 kPa	–	–	–	–	1.337 ± 0.019	1.105 ± 0.017	0.921 ± 0.016	0.771 ± 0.015
101 kPa	793.6 ± 0.23	785 ± 0.24	776.31 ± 0.24	767.44 ± 0.25	–	–	–	–

CCCCCCCC(=O)OCC [ethyl octanoate]
[1]
Conditions	mass density, 288.15 K [kg/m3]	mass density, 298.15 K [kg/m3]	mass density, 308.15 K [kg/m3]	mass density, 318.15 K [kg/m3]	viscosity, 288.15 K [mPa·s]	viscosity, 298.15 K [mPa·s]	viscosity, 308.15 K [mPa·s]	viscosity, 318.15 K [mPa·s]
100.5 kPa	–	–	–	–	1.697 ± 0.022	1.411 ± 0.02	1.193 ± 0.018	1.027 ± 0.017
101 kPa	870.79 ± 0.28	862.15 ± 0.29	853.52 ± 0.29	844.87 ± 0.29	–	–	–	–

CCO [ethanol]
[1]
Conditions	mass density, 288.15 K [kg/m3]	mass density, 298.15 K [kg/m3]	mass density, 308.15 K [kg/m3]	mass density, 318.15 K [kg/m3]	viscosity, 288.15 K [mPa·s]	viscosity, 298.15 K [mPa·s]	viscosity, 308.15 K [mPa·s]	viscosity, 318.15 K [mPa·s]
100.5 kPa	793.6 ± 0.23	785 ± 0.24	776.31 ± 0.24	767.44 ± 0.25	1.337 ± 0.019	1.105 ± 0.017	0.921 ± 0.016	0.771 ± 0.015
101 kPa	793.6 ± 0.23	785 ± 0.24	776.31 ± 0.24	767.44 ± 0.25	–	–	–	–

CCOC(=O)c1ccccc1 [ethyl benzoate]
[1]
Conditions	mass density, 288.15 K [kg/m3]	mass density, 298.15 K [kg/m3]	mass density, 308.15 K [kg/m3]	mass density, 318.15 K [kg/m3]	viscosity, 288.15 K [mPa·s]	viscosity, 298.15 K [mPa·s]	viscosity, 308.15 K [mPa·s]	viscosity, 318.15 K [mPa·s]
100.5 kPa	–	–	–	–	2.444 ± 0.028	1.971 ± 0.024	1.624 ± 0.021	1.368 ± 0.019
101 kPa	1050.78 ± 0.17	1041.42 ± 0.17	1032.07 ± 0.17	1022.73 ± 0.16	–	–	–	–

CCO [ethanol] + CCCC(=O)OCCC(C)C
[2]
Conditions	mass density, 288.15 K [kg/m3]	mass density, 298.15 K [kg/m3]	mass density, 308.15 K [kg/m3]	mass density, 318.15 K [kg/m3]	viscosity, 288.15 K [mPa·s]	viscosity, 298.15 K [mPa·s]	viscosity, 308.15 K [mPa·s]	viscosity, 318.15 K [mPa·s]
100.5 kPa	–	–	–	–	1.337 ± 0.019	1.105 ± 0.017	0.921 ± 0.016	0.771 ± 0.015
101 kPa	793.6 ± 0.23	785 ± 0.24	776.31 ± 0.24	767.44 ± 0.25	–	–	–	–
